Reference: ChEMBL document CHEMBL1681764, “Isolation, structure identification and SAR studies on thiosugar sulfonium salts, neosalaprinol and neoponkoranol, as potent α-glucosidase inhibitors” (Bioorg Med Chem, 2011)

Assays:
[1] = target: T1, Sucrase-isomaltase, intestinal (Rattus norvegicus, UniProt P23739); experiment: Inhibition of rat intestinal isomaltase
[2] = target: T1, Sucrase-isomaltase, intestinal; experiment: Inhibition of rat intestinal sucrase
[3] = target: Sucrase-isomaltase, intestinal (Rattus norvegicus) (UniProt P23739); experiment: Inhibition of rat intestinal sucrase at >384 uM
Sequence of Sucrase-isomaltase, intestinal (Rattus norvegicus) (P23739 1-1013 limits assumed): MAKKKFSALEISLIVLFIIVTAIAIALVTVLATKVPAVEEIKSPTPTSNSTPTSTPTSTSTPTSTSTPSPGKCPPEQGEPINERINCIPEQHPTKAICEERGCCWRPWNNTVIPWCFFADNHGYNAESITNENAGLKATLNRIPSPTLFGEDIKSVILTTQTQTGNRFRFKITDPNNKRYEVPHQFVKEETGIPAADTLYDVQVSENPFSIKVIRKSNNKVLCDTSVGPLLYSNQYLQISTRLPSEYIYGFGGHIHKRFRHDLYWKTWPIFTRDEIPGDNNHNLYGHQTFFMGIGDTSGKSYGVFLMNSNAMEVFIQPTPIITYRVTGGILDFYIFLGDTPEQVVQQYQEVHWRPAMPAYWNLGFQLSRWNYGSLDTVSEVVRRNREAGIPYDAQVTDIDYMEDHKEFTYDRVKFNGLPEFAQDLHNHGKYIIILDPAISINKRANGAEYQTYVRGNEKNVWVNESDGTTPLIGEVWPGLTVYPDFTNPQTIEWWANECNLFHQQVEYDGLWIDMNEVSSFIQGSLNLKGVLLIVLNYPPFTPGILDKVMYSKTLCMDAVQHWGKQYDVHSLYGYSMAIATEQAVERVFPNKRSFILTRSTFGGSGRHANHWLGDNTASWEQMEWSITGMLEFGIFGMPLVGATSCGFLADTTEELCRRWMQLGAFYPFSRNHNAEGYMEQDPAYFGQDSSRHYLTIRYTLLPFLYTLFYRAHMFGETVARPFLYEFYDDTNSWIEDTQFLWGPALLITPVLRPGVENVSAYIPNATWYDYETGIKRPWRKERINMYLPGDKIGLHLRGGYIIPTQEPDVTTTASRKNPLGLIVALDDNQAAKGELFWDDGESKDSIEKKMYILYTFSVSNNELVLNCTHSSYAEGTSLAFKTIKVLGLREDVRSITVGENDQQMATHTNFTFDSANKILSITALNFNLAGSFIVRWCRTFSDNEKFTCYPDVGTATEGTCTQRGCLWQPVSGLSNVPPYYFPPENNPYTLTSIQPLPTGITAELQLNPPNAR
Sequence of Sucrase-isomaltase, intestinal (Rattus norvegicus) (P23739 1014-1841 limits assumed): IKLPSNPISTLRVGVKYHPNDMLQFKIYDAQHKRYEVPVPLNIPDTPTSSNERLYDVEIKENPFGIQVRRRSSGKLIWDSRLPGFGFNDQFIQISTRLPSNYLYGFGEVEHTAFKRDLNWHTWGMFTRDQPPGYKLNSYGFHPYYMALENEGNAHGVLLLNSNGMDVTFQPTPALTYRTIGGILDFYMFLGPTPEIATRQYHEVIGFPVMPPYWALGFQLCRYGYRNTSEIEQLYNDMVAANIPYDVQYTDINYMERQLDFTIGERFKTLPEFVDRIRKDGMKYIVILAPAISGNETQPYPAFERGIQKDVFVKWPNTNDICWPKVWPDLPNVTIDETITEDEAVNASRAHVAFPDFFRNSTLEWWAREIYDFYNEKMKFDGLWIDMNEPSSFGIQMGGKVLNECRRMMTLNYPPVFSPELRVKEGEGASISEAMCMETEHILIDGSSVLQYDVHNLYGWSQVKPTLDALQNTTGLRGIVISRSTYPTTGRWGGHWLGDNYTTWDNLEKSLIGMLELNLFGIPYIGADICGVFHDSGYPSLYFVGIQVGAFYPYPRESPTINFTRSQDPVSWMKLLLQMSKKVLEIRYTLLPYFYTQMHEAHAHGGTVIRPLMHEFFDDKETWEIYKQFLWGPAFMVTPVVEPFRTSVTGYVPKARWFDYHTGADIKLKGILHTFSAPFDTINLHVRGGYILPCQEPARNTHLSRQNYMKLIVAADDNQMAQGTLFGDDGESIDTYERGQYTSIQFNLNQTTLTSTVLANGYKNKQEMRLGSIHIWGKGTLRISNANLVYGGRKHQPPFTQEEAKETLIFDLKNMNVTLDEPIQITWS

[4] = target: Lysosomal alpha-glucosidase (Rattus norvegicus) (UniProt Q6P7A9); experiment: Inhibition of rat intestinal maltase at >384 uM
Sequence of Lysosomal alpha-glucosidase (Rattus norvegicus) (Q6P7A9 whole entry): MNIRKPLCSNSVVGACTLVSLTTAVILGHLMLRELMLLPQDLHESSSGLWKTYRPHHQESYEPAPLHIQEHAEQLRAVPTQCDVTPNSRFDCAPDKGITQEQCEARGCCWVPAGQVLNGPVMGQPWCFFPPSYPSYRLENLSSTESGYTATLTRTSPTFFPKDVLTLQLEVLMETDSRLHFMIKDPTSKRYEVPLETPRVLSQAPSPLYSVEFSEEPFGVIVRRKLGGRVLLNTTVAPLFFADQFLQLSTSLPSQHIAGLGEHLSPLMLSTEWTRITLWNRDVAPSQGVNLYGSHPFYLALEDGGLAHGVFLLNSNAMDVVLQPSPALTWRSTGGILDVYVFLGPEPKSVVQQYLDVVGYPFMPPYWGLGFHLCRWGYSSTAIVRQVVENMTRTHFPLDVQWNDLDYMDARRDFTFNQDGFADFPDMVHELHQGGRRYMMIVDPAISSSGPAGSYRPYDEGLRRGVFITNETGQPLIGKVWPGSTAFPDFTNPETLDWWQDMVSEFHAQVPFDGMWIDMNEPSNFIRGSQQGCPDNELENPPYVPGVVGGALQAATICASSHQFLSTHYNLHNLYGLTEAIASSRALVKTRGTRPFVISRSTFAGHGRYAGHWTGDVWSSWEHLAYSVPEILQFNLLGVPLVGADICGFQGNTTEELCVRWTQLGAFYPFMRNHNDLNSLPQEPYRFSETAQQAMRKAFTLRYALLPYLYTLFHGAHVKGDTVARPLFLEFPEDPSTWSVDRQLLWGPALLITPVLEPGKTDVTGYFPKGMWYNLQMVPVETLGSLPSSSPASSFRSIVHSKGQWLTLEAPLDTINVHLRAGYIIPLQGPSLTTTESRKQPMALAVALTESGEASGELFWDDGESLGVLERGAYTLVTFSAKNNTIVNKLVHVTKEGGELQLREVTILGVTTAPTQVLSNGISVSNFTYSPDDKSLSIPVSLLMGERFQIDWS

T1 sequence (P23739 1-1013 limits assumed): as the sequence (P23739 1-1013 limits assumed) above
T1 sequence (P23739 1014-1841 limits assumed): as the sequence (P23739 1014-1841 limits assumed) above

Row | Compound | IC50 [1] | IC50 [2] | inhibition [3] | inhibition [4]
1 | OC[C@@H](O)[C@@H](O)[C@H](O)[C@H](O)C[S@+]1C[C@@H](O)[C@H](O)[C@H]1CO | 1000 nM | 2900 nM | – | –
2 | O=S(=O)([O-])OC[C@@H](O)C[S@+]1C[C@@H](O)[C@H](O)[C@H]1CO | > 329000 nM | > 329000 nM | – | –
3 | OC[C@@H](O)C[S@+]1C[C@@H](O)[C@H](O)[C@H]1CO | 52900 nM | > 384000 nM | 34.5% | –
4 | OC[C@@H]1[C@@H](O)[C@H](O)C[S@@+]1C[C@@H](O)[C@H](O)[C@H](O)[C@@H](O)CO | 1000 nM | 300 nM | – | –
5 | O=S(=O)([O-])O[C@@H]([C@H](O)[C@H](O)[C@@H](O)CO)[C@H](O)C[S+]1C[C@@H](O)[C@H](O)[C@H]1CO (stereo partly drawn) [KOTALANOL] | 5700 nM | 750 nM | – | –
6 | OC[C@@H]1[C@@H](O)[C@H](O)C[S@@+]1C[C@@H](O)[C@@H](O)[C@H](O)[C@H](O)[C@@H](O)CO [NEOKOTALANOL] | 1800 nM | 4500 nM | – | –
7 | OC[C@@H]1[C@@H](O)[C@H](O)C[S@@+]1C[C@@H](O)[C@@H](O)[C@H](O)[C@@H](O)CO [NEOPONKORANOL] | 1400 nM | 1000 nM | – | –
8 | [O-][C@@H](CO)[C@H](O)C[S@+]1C[C@@H](O)[C@H](O)[C@H]1CO [NEOSALACINOL] | 300 nM | 1300 nM | – | –
9 | OC[C@H](O)C[S@+]1C[C@@H](O)[C@H](O)[C@H]1CO [NEOSALAPRINOL] | 6500 nM | 90000 nM | – | 35%
10 | O=S(=O)([O-])O[C@@H]([C@H](O)[C@@H](O)CO)[C@H](O)C[S@+]1C[C@@H](O)[C@H](O)[C@H]1CO [PONKORANOL] | 2600 nM | 290 nM | – | –
11 | O=S(=O)([O-])O[C@@H](CO)[C@H](O)C[S@+]1C[C@@H](O)[C@H](O)[C@H]1CO [SALACINOL] | 1300 nM | 1600 nM | – | –
12 | O=S(=O)([O-])OC[C@H](O)C[S@+]1C[C@@H](O)[C@H](O)[C@H]1CO [SALAPRINOL] | 15000 nM | > 329000 nM | – | –
13 | OCC(CO)N[C@H]1C[C@](O)(CO)[C@@H](O)[C@H](O)[C@H]1O [VOGLIBOSE] | 2100 nM | 200 nM | – | –
